Data published in the NIST ThermoML archive (doi:10.1016/j.jct.2012.10.028).
Numbers after ± are expanded uncertainties.

How the values were obtained:
[1] = refractive index (Na D-line) (dimensionless); conditions: 298.2 K; 101.33 kPa; Liquid; Standard Abbe refractometry
[2] = 101.33 kPa, Liquid, Vibrating tube method

Row | SMILES | refractive index [1] | mass density ([2]; 298.2 K) [kg/m3] | mass density ([2]; 293.15 K) [kg/m3]
1 | O [water] | 1.3325 ± 0.0005 |  | 
2 | CCCCCCCCO [octan-1-ol] | 1.427 ± 0.0005 | 824.1 ± 0.31 | 
3 | CCCCC(CC)CO (centres undefined) [2-ethyl-1-hexanol] | 1.4293 ± 0.0005 | 830.57 ± 0.31 | 
4 | O=C1CCCCC1 [cyclohexanone] | 1.4503 ± 0.0005 | 943.04 ± 0.32 | 
5 | CC(=O)OCC(C)C [2-methylpropyl ethanoate] | 1.3878 ± 0.0005 |  | 866.58 ± 0.31
